Experiments:
rat liver microsomes = experiment: Stability of AlDeLuc to rat liver microsomes; format: in vitro ADME; conditions: 2 μM; RLM 0.25 to 5.0 ng/mL; NADPH; 37° C.
Procedure: Investigating the Stability of AlDeLuc to Rat Liver Microsomes. The stability of AlDeLuc (2 μM) in rat liver microsomes (RLM) was measured in a black 96-well plate and was monitored using the IVIS imaging system. To Eppendorf tubes containing potassium phosphate buffer (0.1 M, pH 7.4), RLM (0.25 ng/mL or 5 ng/mL), and AlDeLuc (2 μM) was added NADPH (50 μM in potassium phosphate buffer) and incubated at 37° C. for 15 minutes. In parallel, Eppendorf tubes with potassium phosphate buffer (0.1 M, pH 7.4), ALDH1A1 (0.4 μM), NAD^+ (1 mM), and AlDeLuc (2 μM, activated with acid) were warmed at 37° C. for 15 minutes. The solutions were transported to the laboratory housing the IVIS imaging system (˜10 minutes), transferred to a 96-well plate, and immediately administered ATP-MgSO4 (45 μL, prepared by mixing 17.78 mM ATP-Mg and 35.56 mM MgSO4 in a 1:1 ratio in PBS buffer) and luciferase (5 μL, 1 mg/mL in PBS containing 10% glycerol) to initiate bioluminescence production. Light was collected immediately after mixing, and the total luminescent counts were collected in each condition. The total volume of each well was 200 μL with 0.2% DMSO. All data reported as the mean±standard deviation (n=4).

[1] = Stability in PBS or serum-containing media; format: physicochemical
ALDH1A1 = target: T1, ALDH1A1 (Homo sapiens, UniProt P00352); experiment: Logic-gate activation of AlDeLuc by acid, ALDH1A1 and luciferase; dose dependence; format: biochemical
T1 construct: inferred from Ni-NTA purification; made in house; host or cells: E. coli BL21(DE3)
T1 sequence (P00352 1-501): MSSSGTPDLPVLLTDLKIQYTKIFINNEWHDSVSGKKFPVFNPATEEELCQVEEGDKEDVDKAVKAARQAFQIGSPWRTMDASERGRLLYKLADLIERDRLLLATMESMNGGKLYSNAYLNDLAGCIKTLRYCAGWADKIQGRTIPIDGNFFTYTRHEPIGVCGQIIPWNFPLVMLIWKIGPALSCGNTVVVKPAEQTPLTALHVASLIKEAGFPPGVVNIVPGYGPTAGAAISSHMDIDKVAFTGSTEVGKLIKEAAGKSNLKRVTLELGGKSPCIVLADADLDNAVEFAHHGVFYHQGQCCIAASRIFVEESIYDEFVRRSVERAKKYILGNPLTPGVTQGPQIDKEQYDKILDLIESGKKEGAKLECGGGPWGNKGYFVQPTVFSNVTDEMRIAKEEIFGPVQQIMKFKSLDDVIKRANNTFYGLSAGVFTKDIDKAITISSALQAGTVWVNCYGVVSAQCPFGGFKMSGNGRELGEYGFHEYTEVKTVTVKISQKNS
Procedure: Dose-dependent Enhancement of AlDeLuc. The response of ALDH1A1 (0.4 μM) against different concentrations of AlDeLuc was measured in a black 96-well plate and was monitored using the IVIS imaging system. Various stocks of AlDeLuc were generated so that 20 μL of the probe solution gave the desired concentration. Stocks were prepared by the following: AlDeLuc was first dissolved in DMSO followed by a 60 minute incubation in equal volume 1 M HCl. Subsequently, the reaction was neutralized with 1 M NaOH and diluted with PBS. To a black 96-well plate, TEA buffer (pH 7.4), NAD^+ (2.5 mM), and either […], 5 μM, 10 μM, or 50 μM of AlDeLuc was added. After 60 minutes, each well was treated with ATP-MgSO4 (45 μL, prepared by mixing 17.78 mM ATP-Mg and 35.56 mM MgSO4 in a 1:1 ratio in PBS buffer) and luciferase (5 μL, 1 mg/mL in PBS containing 10% glycerol) to initiate bioluminescence production. Light was collected immediately after mixing, and the signal enhancement was determined relative to control wells not treated with enzymes. The total volume of each well was 200 μL (TEA (pH 7.4) with 0.2% DMSO). All data reported as the mean±standard deviation (n=4).
Dose-dependent Activation of AlDeLuc by ALDH1A1. The response of AlDeLuc (5 μM) against different concentrations of ALDH1A1 was measured in a black 96-well plate and was monitored using the IVIS imaging system. To a black 96-well plate, PBS (pH 7.4), NAD^+, and either 0.05 μM, 0.1 μM, 0.4 μM, 2 μM, or 4 μM of ALDH1A1, was added AlDeLuc. Immediately after, each well was treated with ATP-MgSO4 (45 μL, prepared by mixing 17.78 mM ATP-Mg and 35.56 mM MgSO4 in a 1:1 ratio in PBS buffer) and luciferase (5 μL, 1 mg/mL in PBS containing 10% glycerol) to initiate bioluminescence production. Light was collected immediately after mixing, and the signal enhancement was determined relative to control wells not treated with enzymes. The total volume of each well was 200 μL (PBS (pH 7.4) with 0.2% DMSO). All data reported as the mean standard deviation (n=3).

[2] = Stability of AlDeLuc at acidic, neutral and alkaline pHs; format: physicochemical; conditions: 2 μM, then ALDH1A1 and luciferase
Procedure: Stability of AlDeLuc at Acidic, Neutral and Alkaline pHs. The stability of AlDeLuc (2 μM) to acidic, neutral and alkaline conditions were investigated in a black 96-well plate and monitored using the IVIS imaging system. AlDeLuc was incubated in 1 M HCl (acidic), 1 M NaCl (neutral, pH=7), or 1 M NaOH (alkaline) for one hour, neutralized, and diluted with 0.1 M potassium phosphate buffer (pH 7.4). To the black well-plate was added PBS (pH 7.4), NAD^+ (1 mM), ALDH1A1 (0.4 μM), and either the acidic-, neutral-, or alkaline-treated AlDeLuc. Immediately after, each well was treated with ATP-MgSO4 (45 μL, prepared by mixing 17.78 mM ATP-Mg and 35.56 mM MgSO4 in a 1:1 ratio in PBS buffer) and luciferase (5 μL, 1 mg/mL in PBS containing 10% glycerol) to initiate bioluminescence production. Light was collected immediately after mixing, and the signal enhancement was determined relative to control wells not treated with AlDeLuc. The total volume of each well was 200 μL (PBS (pH 7.4) with 0.2% DMSO). All data reported as the mean±standard deviation.

CCN(CC)c1ccc2nc(C3=N[C@@H](C(OC)OC)CS3)sc2c1 [AlDeLuc, (S)-2-(4-(dimethoxymethyl)-4,5-dihydrothiazol-2-yl)-N,N-diethylbenzo[d]thiazol-6-amine]
bioluminescence after incubation with rat liver microsomes (rat liver microsomes): negligible bioluminescence
hydrolysis ([1]; PBS): does not hydrolyze
hydrolysis ([1]; serum-containing media): does not hydrolyze
signal intensity versus amount of ALDH1A1 (ALDH1A1; AlDeLuc 5 μM, ALDH1A1 0 to 4 μM): highest ALDH1A1 concentration showed the most intense signal
signal intensity versus AlDeLuc concentration (ALDH1A1; AlDeLuc 2 to 50 μM, ALDH1A1 0.4 μM): concentration-dependent increase
bioluminescent signal when acidic conditions and ALDH1A1 applied separately, compared to both (ALDH1A1; luciferase 0.02 mg/mL): significantly attenuated
bioluminescence (acetal unmasking) ([2]; 1 M NaCl (neutral) one hour): no bioluminescence
bioluminescence (acetal unmasking) ([2]; 1 M NaOH (alkaline) one hour): no bioluminescence

Source: patent US20250282770A1, “BIOLUMINESCENT PROBES TO TRACK STEM CELLS IN VIVO” (THE BOARD OF TRUSTEES OF THE UNIVERSITY OF ILLINOIS, priority 2024, published 2025)
